From article PMC7224190, “Pharmacological inhibition of PRMT7 links arginine monomethylation to the cellular stress response” (Nature Communications, 2020)

Columns and labels:
[1] = biological target: T1, PRMT7 (Homo sapiens, UniProt Q9NVM4); experiment: radiometric enzyme kinetics (Km of the methyl donor) with HSPA8 as substrate in presence of ATP; assay type: biochemical
T1 sequence (Q9NVM4 1-692): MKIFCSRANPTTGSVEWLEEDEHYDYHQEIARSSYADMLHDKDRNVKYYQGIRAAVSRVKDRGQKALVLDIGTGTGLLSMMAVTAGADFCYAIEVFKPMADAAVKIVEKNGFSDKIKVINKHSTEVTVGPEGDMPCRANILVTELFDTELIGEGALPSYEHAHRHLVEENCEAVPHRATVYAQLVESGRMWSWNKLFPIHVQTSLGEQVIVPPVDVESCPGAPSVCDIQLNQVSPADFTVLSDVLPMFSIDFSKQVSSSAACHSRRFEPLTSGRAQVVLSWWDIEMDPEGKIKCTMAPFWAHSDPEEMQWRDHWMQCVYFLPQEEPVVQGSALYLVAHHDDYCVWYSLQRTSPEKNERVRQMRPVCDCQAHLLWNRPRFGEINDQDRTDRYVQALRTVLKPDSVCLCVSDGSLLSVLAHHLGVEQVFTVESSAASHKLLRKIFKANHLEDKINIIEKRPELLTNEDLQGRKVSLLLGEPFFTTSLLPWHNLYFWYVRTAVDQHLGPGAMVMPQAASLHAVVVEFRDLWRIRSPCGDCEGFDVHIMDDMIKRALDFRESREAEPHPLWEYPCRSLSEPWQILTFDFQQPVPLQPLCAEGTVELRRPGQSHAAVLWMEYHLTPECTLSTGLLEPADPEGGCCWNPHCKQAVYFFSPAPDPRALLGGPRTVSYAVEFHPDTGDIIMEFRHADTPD

[2] = biological target: T1, PRMT7; experiment: radiometric SPA methyltransferase assay, 3H-SAM and H2B ([…]); assay type: biochemical

Structure (SMILES): C[S@@+](CC[C@H](N)C(=O)O)C[C@H]1O[C@@H](n2cnc3c(N)ncnc32)[C@H](O)[C@@H]1O [SAM]
- Km [1]: 1600 ± 100 nM

Structure (SMILES): NCCCSC[C@H]1O[C@@H](n2cnc3c(N)ncnc32)[C@H](O)[C@@H]1O [SGC0911]
- IC50 [2]: 1000 nM
